Target: PI3Kgamma (Homo sapiens, UniProt P48736)
Assay: Biochemical PI3Kgamma (TR-FRET Adapta Universal Kinase Assay)
Settings: mean of n measurements, read-out: PIK3g/ IC50
Protocol: Test compounds were dissolved in DMSO (10 mM) and transferred into 1.4 mL flat bottom or V-shaped Matrix tubes carrying a unique 2D matrix chip by individual Novartis compound hubs. The numbers of these chips were distinctively linked to Novartis Pharma Numbers. The stock solutions were stored at −20° C. if not used immediately. For the test procedure the vials were defrosted and identified by a scanner whereby a working sheet was generated that guided the subsequent working steps.
Compounds were either manually diluted in DMSO for individual experiments (96 wells enabling 10 cpds at 8 (single points) concentrations) as described in or prepared as described below if tested for profiling in 384-wells. This format enabled the assay of maximally 40 individual test compounds at 8 concentrations (single points) including 4 reference compounds. The dilution protocol included the production of “pre-dilution plates”, “master plates” and “assay plates”.
96 polypropylene well plates were used as pre-dilution plates. A total of 4 pre-dilution plates were prepared including 10 test compounds each on the plate positions A1-A10, one standard compound at A11 and one DMSO control at A12. Programs have been written to run these pipetting steps on the HamiltonSTAR robots.
100 μL of individual compound dilutions including standard compound and controls of the 4 “pre-dilution plates” were transferred into a 384 “master plate” including the following concentrations 1,820, 564, 182, 54.6, 18.2, 5.46, 1.82 and 0.546 μM, respectively in 90% DMSO.
Identical “assay plates” were then prepared by pipetting 50 nL each of compound dilutions of the “master plates” into 384-well “assay plates”. The compounds were mixed with 4.5 μL of assays components plus 4.5 μL enzyme corresponding to a 1:181 dilution enabling the final concentration of 10, 3.0, 1.0, 0.3, 0.1, 0.03, 0.01 and 0.003 μM, respectively. The preparation of the “master plates” was handled by the Matrix PlateMate Plus robot and replication of “assay plates” by the HummingBird robot.
The TR-FRET Adapta™ Universal Kinase Assay Kit was purchased from Invitrogen Corporation (Carlsbad/CA, USA) (Cat. No. PV5099). The kit contains the following reagents: Adapta Eu-anti-ADP Antibody (Europium labeled anti-ADP antibody in HEPES buffered saline, Cat. No. PV5097), Alexa Fluor® 647-labeled ADP tracer (Alexa Fluor® 647-labeled ADP tracer in HEPES buffered saline, Cat. No. PV5098), proprietary TR-FRET dilution buffer pH 7.5 (Cat. No. PV3574).
PIK3CD substrate Phosphatidylinositol was obtained from Invitrogen (vesicules consisting of 2 mM PI in 50 mM HEPES pH7.5; Cat. No. PV5371). PIK3CG substrate Phosphatidylinositol-4,5-bisphosphate (PIP(4,5)2 was obtained from Invitrogen (PIP2:PS large unilamellar vesicules consisting of 1 mM PIP2: 19 mM PS in 50 mM HEPES pH7.5, 3 mM MgCl2, 1 mM EGTA; Cat. No. PV5100).
Time-Resolved Fluorescence Resonance Energy Transfer (TR-FRET) is a technology based on energy transfer between two adjacent dyes, from an excited electron in one dye (the donor) to an electron of an adjacent dye (the acceptor) through resonance, then released as a photon. This energy transfer is detected by an increase in the fluorescence emission of the acceptor, and a decrease in the fluorescence emission of the donor. TR-FRET assays for protein kinases use a long-lifetime lanthanide Terbium or Europium chelates as the donor species which overcome interference from compound autofluorescence or light scatter from precipitated compounds, by introducing a delay after excitation by a flashlamp excitation source. Results are often expressed as a ratio of the intensities of the acceptor and donor fluorophores. The ratiometric nature of such a value corrects for differences in assay volumes between wells, as well as corrects for quenching effects due to colored compounds. The Adapta™ assay can be divided into two phases: a kinase reaction phase and an ADP detection phase. […]

Chain of PI3Kgamma (P48736 whole entry, species assumed): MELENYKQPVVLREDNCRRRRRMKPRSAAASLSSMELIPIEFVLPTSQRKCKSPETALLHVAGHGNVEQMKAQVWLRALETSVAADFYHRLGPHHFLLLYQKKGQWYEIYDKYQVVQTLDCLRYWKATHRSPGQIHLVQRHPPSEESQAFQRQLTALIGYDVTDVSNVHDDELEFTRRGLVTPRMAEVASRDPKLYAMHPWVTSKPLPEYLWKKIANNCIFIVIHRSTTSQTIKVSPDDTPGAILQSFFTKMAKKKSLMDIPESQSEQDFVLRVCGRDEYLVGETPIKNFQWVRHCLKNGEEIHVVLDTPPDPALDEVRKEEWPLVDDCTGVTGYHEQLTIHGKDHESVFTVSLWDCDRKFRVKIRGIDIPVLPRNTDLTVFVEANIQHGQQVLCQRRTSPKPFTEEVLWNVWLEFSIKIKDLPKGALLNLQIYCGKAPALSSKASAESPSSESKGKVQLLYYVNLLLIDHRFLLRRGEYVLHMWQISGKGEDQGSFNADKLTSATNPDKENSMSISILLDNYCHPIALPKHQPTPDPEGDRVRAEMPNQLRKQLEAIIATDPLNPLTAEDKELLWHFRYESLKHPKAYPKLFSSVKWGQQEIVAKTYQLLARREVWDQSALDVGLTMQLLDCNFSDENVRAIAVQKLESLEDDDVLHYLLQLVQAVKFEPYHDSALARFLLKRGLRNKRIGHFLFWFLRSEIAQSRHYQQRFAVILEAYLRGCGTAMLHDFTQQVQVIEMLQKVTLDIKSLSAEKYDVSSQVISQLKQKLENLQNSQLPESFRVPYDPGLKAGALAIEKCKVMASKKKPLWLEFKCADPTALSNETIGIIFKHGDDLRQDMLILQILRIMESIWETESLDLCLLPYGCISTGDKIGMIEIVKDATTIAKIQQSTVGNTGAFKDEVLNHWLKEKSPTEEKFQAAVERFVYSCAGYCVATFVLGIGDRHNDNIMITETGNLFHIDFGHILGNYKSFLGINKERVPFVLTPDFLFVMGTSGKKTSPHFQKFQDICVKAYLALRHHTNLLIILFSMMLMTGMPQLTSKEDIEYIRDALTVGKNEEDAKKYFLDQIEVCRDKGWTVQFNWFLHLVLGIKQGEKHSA

## C[C@H]1[C@H](CO)OC(=O)N1c1cc(-c2cnc(N)nc2C(F)(F)F)nc(N2CCOCC2)n1 [Example 15, (4S,5R)-3-(2′-Amino-2-morpholin-4-yl-4′-trifluoromethyl-[4,5′]bipyrimidinyl-6-yl)-5-hydroxymethyl-4-methyl-oxazolidin-2-one]
  IC50: 338 nM

Source: patent US8865894B2, “Oxazolidin-2-one compounds and uses thereof” (Novartis AG, priority 2012, dated 2014)
